In US7071355B2, “Compounds as anti-inflammatory, immunomodulatory and anti-proliferatory agents” (4 SC AG, priority 2002, dated 2006):

Molecular target: human DHODH (Homo sapiens, UniProt Q02127)
Assay: Inhibition assay of DHODH activity
Assay type: biochemical
Conditions: recombinant human DHODH; 50 μM decyclo ubichinone, 100 μM dihydroorotate, 60 μM 2,6-dichloroindophenol; pH 8.0, 30° C.

Chain of human DHODH (Q02127 whole entry): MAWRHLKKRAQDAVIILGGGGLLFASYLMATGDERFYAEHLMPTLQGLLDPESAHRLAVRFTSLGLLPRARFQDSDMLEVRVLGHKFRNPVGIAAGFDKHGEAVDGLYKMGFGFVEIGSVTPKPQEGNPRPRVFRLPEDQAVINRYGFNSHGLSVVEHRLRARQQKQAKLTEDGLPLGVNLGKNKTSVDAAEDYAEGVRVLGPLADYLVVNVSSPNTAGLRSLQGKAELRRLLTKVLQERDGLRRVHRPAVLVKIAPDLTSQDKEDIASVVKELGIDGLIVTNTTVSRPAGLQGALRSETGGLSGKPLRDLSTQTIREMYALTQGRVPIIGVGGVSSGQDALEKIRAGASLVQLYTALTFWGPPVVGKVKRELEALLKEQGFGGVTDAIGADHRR

Which IC50 does the source give for `O=C(O)C1=C(C(=O)Nc2c(F)cc(-c3ccccc3F)cc2F)CCC1O` (centres unmarked) [Example 12, 5-Hydroxy-2-(3,5,2′-trifluoro-biphenyl-4-ylcarbamoyl)-cyclopent-1-enecarboxylic acid] here?
The IC50 was under 1 µM.

`COc1cccc(-c2ccc(NC(=O)C3=C(C(=O)O)C(O)CC3)c(F)c2)c1` (centres unmarked) [Example 18, 2-(3-Fluoro-3′-methoxy-biphenyl-4-ylcarbamoyl)-5-hydroxy-cyclopent-1-enecarboxylic acid] was tested. Which IC50 did it give?
The IC50 was under 1 µM.
